This assay concerns the target T1, CmoA (Escherichia coli, UniProt P76290).
T1 construct: R100H versus P76290 (PCR mutation or strain difference); expressed in E. coli Rosetta pLysS (DE3); dimer; residues 19-247 (chain A) and 20-244 (chain B) modelled
As to the kind of experiment: X-ray crystal structure ([…] A); FT-MS of released ligand. The class given is binding. To be noted: copurified from E. coli expression host; carboxymethyl carboxylate salt bridge to Arg199; putative active site.

SMILES strings stand for the structures.

T1 sequence (P76290 whole entry R100H, the tested form may be a part): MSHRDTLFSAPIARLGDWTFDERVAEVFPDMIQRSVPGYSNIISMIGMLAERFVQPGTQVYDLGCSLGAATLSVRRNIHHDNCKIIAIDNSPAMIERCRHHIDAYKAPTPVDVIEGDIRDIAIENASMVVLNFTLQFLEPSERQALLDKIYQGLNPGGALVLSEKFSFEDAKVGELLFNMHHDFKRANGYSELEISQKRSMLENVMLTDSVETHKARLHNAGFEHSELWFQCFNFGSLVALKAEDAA

`Nc1ncnc2c1ncn2[C@@H]1O[C@H](C[S+](CC[C@H](N)C(=O)O)CC(=O)O)[C@@H](O)[C@H]1O` (stereo partly drawn) [[(3S)-3-amino-3-carboxypropyl]{[(2S,3S,4R,5R)-5-(6-aminopurin-9-yl)-3,4-dihydroxyoxolan-2-yl]methyl}(carboxymethyl)sulfanium]: the “X-ray crystal structure (1.73 A); FT-MS of released ligand” value is “both molecules of CmoA contain the novel derivative S-adenosyl-S-carboxymethyl-L-homocysteine (SCM-SAH)”.

The record behind these values is article PMC3663124, “S-Adenosyl-S-carboxymethyl-L-homocysteine: a novel cofactor found in the putative tRNA-modifying enzyme CmoA” (Acta Crystallographica Section D: Biological Crystallography, 2013).
